Test systems include OVCAR-5; OVCAR-4; U-251; EKVX; SNB-75; Hs-578T; SNB-19; RPMI-8226; HCT-116; K562; SN12C; 786-0; NCI-H460; SF-539; MDA-MB-231; SF-295; SW-620; CCRF-CEM; A498; ACHN.
What all share (assay): NCI-60 cell line screen, 48 h

The source of these data is ChEMBL document CHEMBL1201862, “PubChem BioAssay data set” (2004).

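1) Cells in 96-well plates. 2) Compound, 48 h, 5 concentrations. 3) Linear interpolation between surrounding doses. 4) Unreached endpoint = highest concentration. GI50 marks 50% less growth.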 Activity calls are given as the source filed them. Rule as the data show it: active = GI50 up to about 1.1 µM and inactive = higher.

As for `CC1(CCc2ccccc2)CC1(Br)Br` (stereo not given), the GI50 is 32.6 µM (inactive) in the assay with OVCAR-5; 30.3 µM (inactive) in the assay on OVCAR-4; 31.4 µM (inactive) in the assay on U-251; 19.1 µM (inactive) in the assay with EKVX; 50.6 µM (inactive) in the assay on SNB-75; 42.9 µM (inactive) in the assay on Hs-578T. Also, the GI50 with SNB-19 was > 100 µM (inactive); in the assay on RPMI-8226 it was 18.6 µM (inactive); in the assay on HCT-116 it was 30.3 µM (inactive); in the assay with K562 it was 19.5 µM (inactive); with SN12C, 18 µM (inactive); in the assay with 786-0, 21 µM (inactive). For the same compound, the GI50 in the assay on NCI-H460 was 34.1 µM (inactive); in the assay with SF-539, > 100 µM (inactive); in the assay with MDA-MB-231, 73.1 µM (inactive); in the assay with SF-295, 25.4 µM (inactive); with SW-620, > 100 µM (inactive); in the assay on CCRF-CEM, 23.6 µM (inactive). Also, the GI50 is 39.6 µM (inactive) in the assay with A498 and 26.3 µM (inactive) with ACHN.
`O=C(/C(=N\Nc1ccc([N+](=O)[O-])cc1[N+](=O)[O-])NC12CC3CC(CC(C3)C1)C2)C(Br)C(=O)c1ccccc1` (stereo not given): the GI50 is 5.4 µM (inactive) with OVCAR-5; 2.77 µM (inactive) in the assay with OVCAR-4; 2.85 µM (inactive) in the assay with U-251; 3.56 µM (inactive) with EKVX; 2.48 µM (inactive) with SNB-75; 4.67 µM (inactive) in the assay on Hs-578T. The GI50 is 3.97 µM (inactive) with SNB-19; 1.84 µM (inactive) in the assay on RPMI-8226; 3.05 µM (inactive) with HCT-116; 2.8 µM (inactive) with K562; 3.12 µM (inactive) in the assay on SN12C; 3.21 µM (inactive) in the assay on 786-0. Besides, the GI50 in the assay on NCI-H460 is 3.61 µM (inactive); in the assay with SF-539, 3.31 µM (inactive); in the assay with MDA-MB-231, 2.27 µM (inactive); in the assay with SF-295, 3.99 µM (inactive); in the assay on SW-620, 0.766 µM (active); with CCRF-CEM, 2.67 µM (inactive). Further, the GI50 was 2.71 µM (inactive) in the assay on A498 and 3.18 µM (inactive) in the assay on ACHN.
In the case of `CCN(CC)CC/N=c1\c2cc(OC)ccc2[nH]c2c([N+](=O)[O-])ccc(NCCN(CC)CC)c12`, the GI50 was 1.57 µM (inactive) in the assay with OVCAR-5; 1.15 µM (inactive) in the assay on OVCAR-4; 1.24 µM (inactive) in the assay on U-251; 1.93 µM (inactive) in the assay on EKVX; 1.9 µM (inactive) in the assay on SNB-75; 1.46 µM (inactive) in the assay with Hs-578T. In addition, the GI50 in the assay with SNB-19 is 0.794 µM (active); with RPMI-8226, 0.451 µM (active); in the assay with HCT-116, 0.853 µM (active); in the assay with K562, 0.306 µM (active); in the assay on SN12C it was 0.925 µM (active); with 786-0, 0.399 µM (active). Moreover, the GI50 with NCI-H460 was 0.386 µM (active); in the assay on SF-539, 1.06 µM (active); in the assay on MDA-MB-231, 0.966 µM (active); in the assay on SF-295, 1.26 µM (inactive); with SW-620, 0.6 µM (active); with CCRF-CEM, 0.258 µM (active). Further, the GI50 in the assay with A498 is 2.3 µM (inactive); with ACHN, 2.78 µM (inactive).
Consider `N#Cc1c(-c2ccc(Cl)cc2)c2c(n(C3OC(CO)C(O)C(O)C3O)c1=S)CCCC2` (stereo not given), for which the GI50 in the assay with OVCAR-5 was > 100 µM (inactive); in the assay with OVCAR-4, 82.2 µM (inactive); in the assay on U-251, 64.9 µM (inactive); in the assay with EKVX, 56.1 µM (inactive); with SNB-75 it was > 100 µM (inactive); in the assay with Hs-578T, > 100 µM (inactive). Moreover, the GI50 in the assay on SNB-19 was 39.1 µM (inactive); in the assay with RPMI-8226, 44.3 µM (inactive); with HCT-116, 53.1 µM (inactive); in the assay on K562, 37.8 µM (inactive); in the assay on SN12C, 68.5 µM (inactive); with 786-0 it was 60.8 µM (inactive). The GI50 with NCI-H460 was 54.2 µM (inactive); in the assay on SF-539 it was > 100 µM (inactive); in the assay with MDA-MB-231, 53.6 µM (inactive); in the assay on SF-295 it was > 100 µM (inactive); with SW-620 it was 74 µM (inactive); in the assay with CCRF-CEM, 49.3 µM (inactive). Besides, the GI50 in the assay on A498 is 49.3 µM (inactive); in the assay with ACHN it was 79.8 µM (inactive).
For `Brc1ccc2[nH]cc(-c3csc(-c4ccccn4)n3)c2c1`, the GI50 in the assay with OVCAR-5 was > 51.1 µM (inactive); in the assay on OVCAR-4 it was 14.4 µM (inactive); in the assay with U-251 it was 13.5 µM (inactive); with EKVX, 9.44 µM (inactive); with SNB-75, 16.9 µM (inactive); in the assay on Hs-578T, > 75.2 µM (inactive). Besides, the GI50 in the assay with SNB-19 is 35 µM (inactive); in the assay on RPMI-8226, 7.8 µM (inactive); with HCT-116, 15.1 µM (inactive); with K562, 5.38 µM (inactive); with SN12C it was 14.4 µM (inactive); in the assay with 786-0, 7.93 µM (inactive). In addition, the GI50 with NCI-H460 is 6.59 µM (inactive); with SF-539, 25.3 µM (inactive); with MDA-MB-231, 22.9 µM (inactive); in the assay with SF-295, 6.68 µM (inactive); in the assay with SW-620, 18.4 µM (inactive); in the assay with CCRF-CEM it was 13.2 µM (inactive). The GI50 is 3.39 µM (inactive) in the assay with A498 and 5.85 µM (inactive) in the assay with ACHN.
On to `N#C/C(=C\c1ccc2[nH]ccc2c1)C(=O)NCCCCNC(=O)/C(C#N)=C/c1ccc2[nH]ccc2c1`, for which the GI50 is > 31.6 µM (inactive) in the assay on OVCAR-5; > 31.6 µM (inactive) in the assay with OVCAR-4; > 31.6 µM (inactive) in the assay on U-251; > 31.6 µM (inactive) with EKVX; > 31.6 µM (inactive) with SNB-75; > 10 µM (inactive) in the assay with Hs-578T. Besides, the GI50 is > 31.6 µM (inactive) with SNB-19; > 10 µM (inactive) with RPMI-8226; > 31.6 µM (inactive) with HCT-116; > 31.6 µM (inactive) in the assay with K562; > 31.6 µM (inactive) in the assay with SN12C; > 31.6 µM (inactive) in the assay with 786-0. The GI50 in the assay with NCI-H460 was > 31.6 µM (inactive); in the assay on SF-539 it was > 31.6 µM (inactive); in the assay on MDA-MB-231 it was > 10 µM (inactive); in the assay on SF-295 it was > 31.6 µM (inactive); in the assay with SW-620 it was > 31.6 µM (inactive); in the assay on CCRF-CEM, > 31.6 µM (inactive). For the same compound, the GI50 with A498 and in the assay with ACHN was > 31.6 µM (inactive) throughout.
As to `COCCOC(C)C(=O)C(O)S(=O)(=O)O` (stereo not given), the GI50 in the assay on OVCAR-5, with OVCAR-4, with U-251, in the assay with EKVX, with SNB-75 and in the assay on Hs-578T was > 100 µM (inactive) each time. In addition, the GI50 in the assay with SNB-19, with RPMI-8226, with HCT-116, in the assay on K562, in the assay on SN12C and in the assay with 786-0 was > 100 µM (inactive) in each case. For the same compound, the GI50 in the assay with NCI-H460, in the assay with SF-539, in the assay with MDA-MB-231, in the assay with SF-295, in the assay with SW-620 and with CCRF-CEM was > 100 µM (inactive) each time. In addition, the GI50 in the assay with A498 and in the assay with ACHN was > 100 µM (inactive) throughout.
